Experimental data reported in US20170232031A1, “Inhibitors of Zika Virus” (Riboscience LLC, priority 2016, published 2017).
Like-named read-outs stand apart in the source and are kept apart here.

What was measured:
[1] = Cytotoxicity (CC50) alongside HCV GT1b replicon assay; conditions: HCV GT1b (Con1) replicon cells
human RNA polymerase I [2] = biological target: T1, human RNA polymerase I (Homo sapiens, UniProt O95602+Q9H9Y6); test: RNA polymerase I specific reporter gene assay in HeLa cells; format: cell-based; conditions: 10 or 100 μM (highest soluble concentrations)
T1 construct: endogenous in cells; host or cells: HeLa

[3] = system: HCV replicon of genotype 1b (Con1); test: HCV replicon genotype 1b antiviral activity; format: cell-based; conditions: Hepatitis C virus; replicon genotype 1b (Con1); read-out: HCV GT1b EC50
[4] = Cytotoxicity (CC50) alongside HCV GT1a replicon assay; format: cell-based; conditions: HCV GT1a (H77) replicon cells; replicon genotype 1a (H77)
[5] = system: HCV replicon of genotype 1a (H77); test: HCV replicon genotype 1a antiviral activity; format: cell-based; conditions: Hepatitis C virus; replicon genotype 1a (H77); read-out: HCV GT1a EC50
human RNA polymerase III [6] = biological target: T2, human RNA polymerase III (Homo sapiens, UniProt O14802+Q9NW08); test: RNA polymerase III specific reporter gene assay in HeLa cells; format: cell-based; conditions: 10 or 100 μM (highest soluble concentrations)
T2 construct: endogenous in cells; host or cells: HeLa

[7] = Solubility in cell culture medium / aqueous media; conditions: plasma or biological fluid
[8] = Cell viability (CC50) alongside ZIKV antiviral assay, Cell-titer Glo; format: cell-based; conditions: human, Huh-7 cells
Method: (§1) The human hepatoma cell line Huh-7, are cultured in DMEM without phenol-red (Cellgro Mediatech, Cat #10-013-CV containing 4.5 g/l glucose, L-glutamine & sodium pyruvate). The medium is further supplemented with 10% (v/v) FBS (ATLAS Cat # F-0500-A, lot#850114A) and 1% (vlv) penicillin/streptomycin (Cellgro Mediatech #30-022-CI). Cells are maintained at 37° C. in a humidified 5% CO2 atmosphere. Zika virus representative strain titers are measured on BHK-21 cells, using a standard plaque assay procedure. For the determination of EC50 of nucleoside in the antiviral assay, Huh-7 cells are plated in white 96-well plates in MEM media supplemented with 10% FBS and 1% penicillin/streptomycin. After incubation for 24 h, the cells are infected at a multiplicity of infection (MOI) of 0.5 for 2 h at 37° C. Ten three-fold dilutions of compounds are prepared in the same media supplemented with 1% DMSO. After the 2 h adsorption phase, the virus is aspirated off and diluted compound is added to four wells each. Huh-7 cells are plated as described above and exposed to the same concentration range of compounds. Untreated cells are carried along as a control. After a 3-day incubation at 37° C., the cell viability is determined using Cell-titer Glo™ reagent (Promega, Madison, Wis.) that is added to each well and incubated for 5 min. Plates are analyzed using a Thermo Luminoskan plate reader (Waltham, Mass.).

[9] = system: ZIKV strain MR766 (Genbank LC002520); test: Antiviral activity against ZIKV replication in cells; format: cell-based, Zika virus
Method: as §1

human RNA polymerase II [10] = biological target: T3, human RNA polymerase II (Homo sapiens, UniProt P24928+P30876); test: RNA polymerase II specific reporter gene assay in HeLa cells; format: cell-based; conditions: 10 or 100 μM (highest soluble concentrations)
T3 construct: endogenous in cells; host or cells: HeLa

Dengue virus polymerase = Dengue virus polymerase (Dengue virus type 2, UniProt P29990); test: Inhibition of Dengue virus polymerase; format: biochemical
human RNA polymerase II [11] = biological target: T3, human RNA polymerase II; test: Human RNA polymerase II activity in cell extracts; format: biochemical
human RNA polymerase III [12] = biological target: T2, human RNA polymerase III; test: Human RNA polymerase III activity in cell extracts; format: biochemical
human DNA polymerase α = biological target: T4, human DNA polymerase α (Homo sapiens, UniProt P09884); test: Inhibition of human DNA polymerase α; format: biochemical
T4 sequence (P09884 1-1462): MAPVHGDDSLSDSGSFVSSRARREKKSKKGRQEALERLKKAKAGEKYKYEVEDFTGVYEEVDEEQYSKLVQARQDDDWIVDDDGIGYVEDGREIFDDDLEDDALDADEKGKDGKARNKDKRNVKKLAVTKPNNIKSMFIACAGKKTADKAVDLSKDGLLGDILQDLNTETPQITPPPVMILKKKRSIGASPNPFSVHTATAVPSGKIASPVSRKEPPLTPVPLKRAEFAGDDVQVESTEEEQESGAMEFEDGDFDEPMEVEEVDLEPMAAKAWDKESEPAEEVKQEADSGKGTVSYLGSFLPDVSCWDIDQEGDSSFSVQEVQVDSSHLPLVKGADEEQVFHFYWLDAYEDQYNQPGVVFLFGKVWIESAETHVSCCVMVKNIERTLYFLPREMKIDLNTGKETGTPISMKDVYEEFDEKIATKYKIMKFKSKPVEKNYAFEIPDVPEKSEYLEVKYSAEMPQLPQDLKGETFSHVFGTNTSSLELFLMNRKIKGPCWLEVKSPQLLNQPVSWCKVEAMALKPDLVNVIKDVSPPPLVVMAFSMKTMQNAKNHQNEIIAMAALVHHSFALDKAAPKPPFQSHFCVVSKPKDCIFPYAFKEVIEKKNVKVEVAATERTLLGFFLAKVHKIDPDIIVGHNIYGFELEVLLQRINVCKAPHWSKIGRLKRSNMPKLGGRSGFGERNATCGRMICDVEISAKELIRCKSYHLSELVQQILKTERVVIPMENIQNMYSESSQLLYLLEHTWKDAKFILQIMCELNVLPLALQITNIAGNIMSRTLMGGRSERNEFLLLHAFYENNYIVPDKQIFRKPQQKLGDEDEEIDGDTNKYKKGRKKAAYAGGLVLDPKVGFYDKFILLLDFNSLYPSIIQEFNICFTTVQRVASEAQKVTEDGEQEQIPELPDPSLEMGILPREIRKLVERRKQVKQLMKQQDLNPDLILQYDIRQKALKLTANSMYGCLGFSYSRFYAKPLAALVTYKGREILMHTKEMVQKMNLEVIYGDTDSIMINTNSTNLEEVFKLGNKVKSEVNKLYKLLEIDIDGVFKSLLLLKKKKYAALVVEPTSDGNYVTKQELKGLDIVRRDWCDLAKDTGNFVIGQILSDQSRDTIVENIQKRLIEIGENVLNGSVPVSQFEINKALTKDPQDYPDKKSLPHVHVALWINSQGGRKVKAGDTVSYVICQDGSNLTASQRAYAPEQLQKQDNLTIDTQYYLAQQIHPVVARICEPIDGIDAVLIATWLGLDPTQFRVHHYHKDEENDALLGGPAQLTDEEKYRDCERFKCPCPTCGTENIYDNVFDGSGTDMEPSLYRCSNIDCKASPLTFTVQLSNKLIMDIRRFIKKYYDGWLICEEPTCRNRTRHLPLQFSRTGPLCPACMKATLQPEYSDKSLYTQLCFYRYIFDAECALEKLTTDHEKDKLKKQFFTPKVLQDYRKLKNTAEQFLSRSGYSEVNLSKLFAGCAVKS

[13] = biological target: T5, mitochondrial DNA polymerase pol γ (Homo sapiens, UniProt P54098); test: Inhibition of mitochondrial DNA polymerase pol γ; format: biochemical; conditions: read-out: DNA pol γ IC50
T5 sequence (P54098 1-1239): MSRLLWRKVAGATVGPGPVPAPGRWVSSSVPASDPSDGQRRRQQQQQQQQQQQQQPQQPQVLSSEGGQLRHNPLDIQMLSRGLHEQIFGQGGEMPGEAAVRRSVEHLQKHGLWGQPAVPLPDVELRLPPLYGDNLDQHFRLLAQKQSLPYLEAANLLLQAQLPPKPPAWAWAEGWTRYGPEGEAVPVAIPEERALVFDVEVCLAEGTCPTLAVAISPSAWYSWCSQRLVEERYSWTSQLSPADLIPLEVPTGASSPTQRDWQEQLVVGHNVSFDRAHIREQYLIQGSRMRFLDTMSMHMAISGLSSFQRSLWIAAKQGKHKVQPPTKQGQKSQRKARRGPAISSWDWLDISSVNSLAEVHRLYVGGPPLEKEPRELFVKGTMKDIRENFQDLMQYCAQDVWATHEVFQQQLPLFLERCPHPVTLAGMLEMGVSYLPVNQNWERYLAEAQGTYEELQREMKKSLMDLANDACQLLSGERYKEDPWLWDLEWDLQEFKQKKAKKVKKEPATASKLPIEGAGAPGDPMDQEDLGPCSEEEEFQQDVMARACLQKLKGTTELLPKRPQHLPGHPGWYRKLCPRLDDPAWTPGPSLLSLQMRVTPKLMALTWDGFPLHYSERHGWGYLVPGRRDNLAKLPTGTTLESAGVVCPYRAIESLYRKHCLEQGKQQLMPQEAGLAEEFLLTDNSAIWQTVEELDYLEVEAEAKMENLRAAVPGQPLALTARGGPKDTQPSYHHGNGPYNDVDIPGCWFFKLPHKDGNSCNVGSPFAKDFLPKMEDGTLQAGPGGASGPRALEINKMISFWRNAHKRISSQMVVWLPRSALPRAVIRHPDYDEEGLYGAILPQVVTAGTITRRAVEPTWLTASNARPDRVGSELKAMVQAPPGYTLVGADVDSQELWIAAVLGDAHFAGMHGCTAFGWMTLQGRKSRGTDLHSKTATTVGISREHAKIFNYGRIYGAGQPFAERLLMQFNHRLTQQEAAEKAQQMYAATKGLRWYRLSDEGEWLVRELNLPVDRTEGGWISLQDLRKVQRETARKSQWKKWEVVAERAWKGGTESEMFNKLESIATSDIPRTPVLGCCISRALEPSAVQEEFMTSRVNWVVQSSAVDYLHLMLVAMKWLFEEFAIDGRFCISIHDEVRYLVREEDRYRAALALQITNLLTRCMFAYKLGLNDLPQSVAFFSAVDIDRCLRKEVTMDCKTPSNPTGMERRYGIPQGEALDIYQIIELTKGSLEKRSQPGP

human DNA polymerase β = human DNA polymerase β (Homo sapiens, UniProt P06746); test: Inhibition of human DNA polymerase β; format: biochemical
HCV polymerase = HCV polymerase (Hepatitis C virus genotype 1a, UniProt P27958); test: Inhibition of HCV polymerase; format: biochemical
influenza polymerase = influenza polymerase (Influenza A virus, UniProt P03431); test: Activity against influenza polymerase; format: biochemical
RSV polymerase = test: Activity against RSV polymerase; format: biochemical
human RNA polymerase I [14] = biological target: T1, human RNA polymerase I; test: Human RNA polymerase I activity in cell extracts; format: biochemical

## C[C@H](NP(=O)(OC[C@@]1(N=[N+]=[N-])O[C@@H](n2ccc(=O)[nH]c2=O)[C@H](O)[C@@H]1O)Oc1cccc2ccccc12)C(=O)OCc1ccccc1 (stereo partly drawn) [Compound I-1, benzyl ((((2R,3S,4R,5R)-2-azido-5-(2,4-dioxo-3,4-dihydropyrimidin-1(2H)-yl)-3,4-dihydroxytetrahydrofuran-2-yl)methoxy)(naphthalen-1-yloxy)phosphoryl)-L-alaninate]
[1]
  CC50: > 10 µM
Human RNA polymerase I [2]
  inhibition of human RNA polymerase I activity (reporter gene): did not inhibit
[3]
  EC50: 0.33 µM
[4]
  CC50: > 10 µM
[5]
  EC50: 0.42 µM
Human RNA polymerase III [6]
  inhibition of human RNA polymerase III activity (reporter gene): did not inhibit
[7]
  solubility: ≤ 10 µM
[8]; cytotoxicity column of the ZIKV assay, read-out: ZIKV CC50
  CC50 at 3 day: > 10 µM
[8]; summary statement, cytotoxicity in cell culture, read-out: Huh-7 cell CC50
  CC50 at 3 day: > 100 µM
[9]; Zika virus, ZIKV strain MR766, human Huh-7 or mouse MEF cells
  EC50: 0.74 µM
[9]; summary statement
  antiviral inhibition potency (EC50), in words: submicromolar
Human RNA polymerase II [10]
  inhibition of human RNA polymerase II activity (reporter gene): did not inhibit

## [N-]=[N+]=N[C@]1(COP(=O)(O)OP(=O)(O)OP(=O)(O)O)O[C@@H](n2ccc(=O)[nH]c2=O)[C@H](O)[C@@H]1O [Compound 4AUTP, 4′-azido-uridine triphosphate]
Dengue virus polymerase
  inhibition of Dengue virus polymerase: inhibition
Human RNA polymerase II [11]
  IC50: > 1000 µM
Human RNA polymerase III [12]
  IC50: > 1000 µM
Human DNA polymerase α
  IC50: > 1000 µM
[13]
  IC50: > 1000 µM
Human DNA polymerase β
  IC50: > 1000 µM
HCV polymerase
  inhibition of HCV polymerase: inhibition
Influenza polymerase
  activity against influenza polymerase: not active
RSV polymerase
  activity against RSV polymerase: not active
Human RNA polymerase I [14]
  IC50: > 1000 µM
